Data published in patent US5428016A, “Antimicrobial peptide and antimicrobial agent” (Morinaga Milk Industry Co., Ltd., priority 1991, dated 1995).
Where no end group is shown, it is not given here.

Legend:
Assay type in all cases: cell-based
[1] = test system: Listeria monocytogenes IDF 1b; details: 17 h
Protocol: (§1) The antimicrobial peptides (samples Nos. 1 to 15) were prepared using the same methods as in Examples 1 to 15, and antimicrobial peptide derivatives (samples Nos. 16 to 18) were prepared using the same methods as in Examples 16 to 18, and were sterilized by filtration using a 0.45 μm Millex filter prior to use.
(§2) Various microbial strains shown in Table 4 in the logarithmic phase of growth were inoculated in a peptone medium which consisted of 1% Bactopeptone (manufactured by Difco Laboratory Co.) at a cell concentration of 10^6 /ml, and 160 μl thereof were incubated for 17 hours at 37° C. (or 30° C.) using a 96-hole microtiter plate (manufactured by Falcon Co.). Each sample was added to each medium at a ratio of 0, 1.5, 3, 6, 12, 25, 50, 100, 125 or 250 μM. The growth of the various microorganisms in the various samples at various concentrations was studied by measuring the light absorption at 660 nm.
(§3) The microorganisms used in this experiment are available from The Medical School Laboratories of Tokyo University (IID), Japanese Physicochemical Laboratories (JCM), Japanese International Dairy Federation (IDF), and the storage at the laboratory of the applicant (MMI).

[2] = test system: Staphylococcus aureus JCM 2151; details: JCM 2151, 17 h
Protocol: as §1, §2, §3

[3] = test system: Klebsiella pneumoniae JCM 1662 T; details: JCM 1662, 17 h
Protocol: as §1, §2, §3

[4] = test system: Pseudomonas aeruginosa MMI 603; details: MMI 603, 17 h
Protocol: as §1, §2, §3

[5] = test system: Escherichia coli IID 861
Protocol: as §1, §2, §3

[6] = test system: Escherichia coli MMI 0111; test: Antimicrobial spectrum, minimum inhibitory concentration
Protocol: as §1, §2, §3

| Substance | minimum inhibitory concentration (MIC) [1] | minimum inhibitory concentration (MIC) [2] | minimum inhibitory concentration (MIC) [3] | minimum inhibitory concentration (MIC) [4] | minimum inhibitory concentration (MIC) [5] | minimum inhibitory concentration (MIC) [6] |
| --- | --- | --- | --- | --- | --- | --- |
| KRNMRK [Sample No. 9, Lys-Arg-Asn-Met-Arg-Lys] | up to 100 μM | up to 100 μM | – | – | – | – |
| KSRRRQWRMKK [Sample No. 12, Lys-Ser-Arg-Arg-Arg-Gln-Trp-Arg-Met-Lys-Lys] | up to 12 μM | up to 12 μM | up to 50 μM | up to 50 μM | – | – |
| KTFQWQRNMRK [Sample No. 14, Lys-Thr-Phe-Gln-Trp-Gln-Arg-Asn-Met-Arg-Lys] | up to 12 μM | up to 12 μM | up to 50 μM | up to 50 μM | – | – |
| KTLRWQNEMRK [Sample No. 15, Lys-Thr-Leu-Arg-Trp-Gln-Asn-Glu-Met-Arg-Lys] | up to 12 μM | up to 12 μM | up to 50 μM | up to 50 μM | – | – |
| KTRRWQWRMKK [Sample No. 11, Lys-Thr-Arg-Arg-Trp-Gln-Trp-Arg-Met-Lys-Lys] | up to 12 μM | up to 12 μM | up to 50 μM | up to 50 μM | – | – |
| KTRRWQWRMKK-NH2 [Sample No. 18, Lys-Thr-Arg-Arg-Trp-Gln-Trp-Arg-Met-Lys-Lys-NH2] | – | – | – | – | 3 µM | 6 µM |
| KTVSWQTYMKK [Sample No. 13, Lys-Thr-Val-Ser-Trp-Gln-Thr-Tyr-Met-Lys-Lys] | up to 12 μM | up to 12 μM | up to 50 μM | up to 50 μM | – | – |
| KTVSWR [Sample No. 8, Lys-Thr-Val-Ser-Trp-Arg] | up to 100 μM | up to 100 μM | – | – | – | – |
| RRRQWR [Sample No. 7, Arg-Arg-Arg-Gln-Trp-Arg] | up to 100 μM | up to 100 μM | – | – | – | – |
| RRWQWR [Sample No. 6, Arg-Arg-Trp-Gln-Trp-Arg] | up to 100 μM | up to 100 μM | – | – | – | – |
| RWQEMK [Sample No. 10, Arg-Trp-Gln-Glu-Met-Lys] | up to 100 μM | up to 100 μM | – | – | – | – |
